Columns and labels:
[1] = target: recombinant human wild type LRRK2 (Homo sapiens, UniProt Q5S007); assay: TR-FRET-based kinase activity assay, wild type LRRK2; format: biochemical; conditions: read-out: IC50, human wild type LRRK2 activity, ATP 100 μM
[2] = target: G2019S LRRK2 (Homo sapiens, UniProt Q5S007, G2019S); assay: TR-FRET-based kinase activity assay, G2019S LRRK2; format: biochemical; conditions: read-out: IC50, G2019S LRRK2 activity, ATP 100 μM
[3] = test system: human cortical neurons; assay: AlamarBlue cytotoxicity assay in primary human cortical neurons; format: cell-based; conditions: for Concentration at which overt cytotoxicity was seen: human cortical neurons
[4] = Pharmacokinetics studies; conditions: in vivo
[5] = test system: rat primary cortical neurons transfected with LRRK2 G2019S; format: cell-based
[6] = test system: rat primary cortical neurons transfected with LRRK2 R1441C; format: cell-based; conditions: at higher concentrations
[7] = test system: LRRK2 G2019S-transfected human cortical neurons; assay: Neurite morphology assay in primary human cortical neurons; conditions: for EC50: read-out: EC50, attenuation of G2019S LRRK2-induced human neuronal injury
[8] = target: mouse LRRK2 (mouse kidney lysate) (Mus musculus, UniProt Q5S006); assay: Competition-binding assay with la-S7 matrix; conditions: concentrations as high as 100 μM tested; 5 mg/mL protein
Chain of mouse LRRK2 (mouse kidney lysate) (Q5S006 1879-2146 limits assumed): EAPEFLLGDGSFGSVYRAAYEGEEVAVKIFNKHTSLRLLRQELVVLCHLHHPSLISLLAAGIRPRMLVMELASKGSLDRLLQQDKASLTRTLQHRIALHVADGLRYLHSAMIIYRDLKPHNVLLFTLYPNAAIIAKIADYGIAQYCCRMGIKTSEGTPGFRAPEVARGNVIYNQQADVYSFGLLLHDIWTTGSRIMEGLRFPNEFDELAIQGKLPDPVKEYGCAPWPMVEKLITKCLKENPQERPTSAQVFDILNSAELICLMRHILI

[9] = target: LRRK2 (human K562 extracts) (Homo sapiens, UniProt Q5S007); assay: la-S7 binding assay in human K562 extracts; conditions: concentrations as high as 100 μM tested; 5 mg/mL protein
Chain of LRRK2 (human K562 extracts) (Q5S007 whole entry): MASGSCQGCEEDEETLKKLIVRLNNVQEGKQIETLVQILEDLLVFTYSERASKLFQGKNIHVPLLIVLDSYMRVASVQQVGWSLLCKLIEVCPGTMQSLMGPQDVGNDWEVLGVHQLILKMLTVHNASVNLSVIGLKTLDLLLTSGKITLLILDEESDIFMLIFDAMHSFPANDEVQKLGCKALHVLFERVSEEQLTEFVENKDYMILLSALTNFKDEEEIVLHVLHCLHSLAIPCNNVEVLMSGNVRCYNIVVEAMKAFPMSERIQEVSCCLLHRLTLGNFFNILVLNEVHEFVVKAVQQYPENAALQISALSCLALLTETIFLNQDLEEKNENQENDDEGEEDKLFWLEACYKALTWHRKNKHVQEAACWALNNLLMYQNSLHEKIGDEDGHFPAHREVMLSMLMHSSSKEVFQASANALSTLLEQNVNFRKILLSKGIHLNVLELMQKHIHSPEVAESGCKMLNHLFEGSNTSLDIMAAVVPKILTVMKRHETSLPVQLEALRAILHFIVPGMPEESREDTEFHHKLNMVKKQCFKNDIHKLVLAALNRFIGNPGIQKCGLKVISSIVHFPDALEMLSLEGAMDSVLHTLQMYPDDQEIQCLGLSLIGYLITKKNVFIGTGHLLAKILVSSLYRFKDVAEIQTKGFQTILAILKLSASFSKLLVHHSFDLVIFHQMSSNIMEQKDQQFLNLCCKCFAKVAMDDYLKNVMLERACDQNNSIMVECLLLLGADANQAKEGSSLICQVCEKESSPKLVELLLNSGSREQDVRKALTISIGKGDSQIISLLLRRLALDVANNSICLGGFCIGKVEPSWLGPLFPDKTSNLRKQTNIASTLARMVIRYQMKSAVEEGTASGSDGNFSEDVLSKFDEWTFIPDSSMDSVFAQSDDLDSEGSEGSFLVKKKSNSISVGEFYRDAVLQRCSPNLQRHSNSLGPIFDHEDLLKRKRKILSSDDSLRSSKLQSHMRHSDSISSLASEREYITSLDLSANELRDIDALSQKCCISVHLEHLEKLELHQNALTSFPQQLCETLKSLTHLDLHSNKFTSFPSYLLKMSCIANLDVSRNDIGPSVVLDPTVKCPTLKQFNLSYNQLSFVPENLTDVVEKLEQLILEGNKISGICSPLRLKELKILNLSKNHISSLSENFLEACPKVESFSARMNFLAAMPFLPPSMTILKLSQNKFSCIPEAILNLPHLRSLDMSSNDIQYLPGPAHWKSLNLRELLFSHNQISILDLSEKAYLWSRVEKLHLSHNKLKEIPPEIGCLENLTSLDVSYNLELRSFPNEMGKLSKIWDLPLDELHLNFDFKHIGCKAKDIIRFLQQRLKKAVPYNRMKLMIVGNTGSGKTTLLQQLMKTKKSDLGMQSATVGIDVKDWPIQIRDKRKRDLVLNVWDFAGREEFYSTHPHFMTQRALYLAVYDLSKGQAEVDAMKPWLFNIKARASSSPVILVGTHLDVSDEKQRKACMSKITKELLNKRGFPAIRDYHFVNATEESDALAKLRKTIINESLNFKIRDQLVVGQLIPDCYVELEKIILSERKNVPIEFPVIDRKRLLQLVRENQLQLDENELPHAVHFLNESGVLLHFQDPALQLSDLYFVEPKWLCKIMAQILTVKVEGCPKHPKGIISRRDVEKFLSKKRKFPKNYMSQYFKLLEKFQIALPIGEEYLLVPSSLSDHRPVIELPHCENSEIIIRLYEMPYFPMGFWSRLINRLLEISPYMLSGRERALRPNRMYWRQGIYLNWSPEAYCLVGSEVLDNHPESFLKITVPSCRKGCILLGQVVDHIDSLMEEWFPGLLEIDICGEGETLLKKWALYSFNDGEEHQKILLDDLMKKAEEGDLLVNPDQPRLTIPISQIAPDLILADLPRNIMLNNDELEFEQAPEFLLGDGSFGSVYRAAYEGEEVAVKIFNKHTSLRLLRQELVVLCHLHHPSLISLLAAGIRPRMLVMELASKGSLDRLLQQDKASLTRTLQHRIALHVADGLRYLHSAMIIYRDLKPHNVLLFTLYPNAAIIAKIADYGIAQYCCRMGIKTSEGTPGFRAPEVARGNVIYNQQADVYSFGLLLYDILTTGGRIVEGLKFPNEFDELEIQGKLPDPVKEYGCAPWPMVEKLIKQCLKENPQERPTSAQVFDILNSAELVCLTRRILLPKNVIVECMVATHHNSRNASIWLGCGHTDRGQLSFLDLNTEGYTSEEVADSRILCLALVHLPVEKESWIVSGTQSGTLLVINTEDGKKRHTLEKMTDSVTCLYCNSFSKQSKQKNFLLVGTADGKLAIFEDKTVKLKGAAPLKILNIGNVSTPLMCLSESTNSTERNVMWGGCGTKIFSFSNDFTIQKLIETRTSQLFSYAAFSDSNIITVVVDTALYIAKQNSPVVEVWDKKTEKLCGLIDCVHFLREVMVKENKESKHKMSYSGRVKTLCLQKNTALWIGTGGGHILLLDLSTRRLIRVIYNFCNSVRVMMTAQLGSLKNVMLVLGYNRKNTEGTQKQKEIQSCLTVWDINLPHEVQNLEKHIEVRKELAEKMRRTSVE

Chain of recombinant human wild type LRRK2 (Q5S007 whole entry): as above
Chain of G2019S LRRK2 (Q5S007 whole entry G2019S): as the sequence (Q5S007 whole entry) above, with G2019S counted along it

Structure (SMILES)	IC50 [1]	IC50 [2]	Concentration at which overt cytotoxicity was seen [3]	Concentrations at which no cytotoxicity was caused ([3]; seven-day treatment in culture)	Brain penetration [4]	Clearance [4]	Volume of distribution [4]	Block of G2019S LRRK2-induced toxicity ([5]; at higher concentrations)	EC50 ([5]; read-out: EC50, attenuation of G2019S LRRK2-induced neuronal injury and death, primary rodent cortical neurons)	Block of R1441C-induced toxicity [6]	Concentration fully reversing G2019S LRRK2-induced injury to wild-type levels [7]	EC50 [7]	IC50 in la-S7 binding assay, mouse kidney extracts [8]	IC50 in la-S7 binding assay, human K562 extracts [9]
COc1cc(N2CCOCC2)ccc1Nc1ncc(F)c(Nc2ccccc2NS(C)(=O)=O)n1 [CZC-25146]	4.76 nM	6.87 nM	5000 nM	below 5 μM	~ 4%	38.3 mL/min/kg	5.4 L/kg	completely blocked	~100 nM	completely blocked	8 nM	~4 nM		
COc1cc(N2CCOCC2)ccc1Nc1ncc(Cl)c(Nc2ccccc2NS(C)(=O)=O)n1 [CZC-54252]	1.28 nM	1.85 nM	≥ 1000 nM		~ 4%						1.6 nM	~1 nM		
O=C1Nc2ccc(I)cc2/C1=C/c1cc(Br)c(O)c(Br)c1 [GW-5074]													no valid IC50s	no valid IC50s
